{"source": "paper PMC2628613", "about": "(Diabetes, 2009)", "key": {"PBMCs": {"system": "PBMCs", "type": "cell-based, human"}, "purified HLA-A2": {"system": "purified HLA-A2", "parameters": "species or system human", "settings": ">50, 20–50, <20% binding at 10^−6 mol/l = high, intermediate, low binders"}}, "data": [{"substance": "AAVDLSHFL [Nef 83–91, reference compound]", "values": [{"measurement": "Frequencies of recognition, Control subjects", "setting": "PBMCs", "value": "0/4"}, {"measurement": "Frequencies of recognition, Patients", "setting": "PBMCs", "value": "0/12"}, {"measurement": "Responses (stimulation score), Control subjects", "setting": "PBMCs", "value": "0 (0–5)"}, {"measurement": "Responses (stimulation score), Patients", "setting": "PBMCs", "value": "3 (0–20)"}]}, {"substance": "ALWGPDPAAA [15–24]", "values": [{"measurement": "Binding to HLA-A2 (in words)", "setting": "purified HLA-A2", "value": "high binders"}, {"measurement": "Frequencies of recognition, C", "setting": "PBMCs", "value": "0/4"}, {"measurement": "Frequencies of recognition, Control subjects", "setting": "PBMCs", "value": "0/6"}, {"measurement": "Frequencies of recognition, D", "setting": "PBMCs", "value": "0/2"}, {"measurement": "Frequencies of recognition, L", "setting": "PBMCs", "value": "1/4"}, {"measurement": "Frequencies of recognition, Patients", "setting": "PBMCs", "value": "8/17"}, {"measurement": "Frequencies of recognition, R", "setting": "PBMCs", "value": "7/13"}, {"measurement": "Recognized in % of patients", "setting": "PBMCs", "value": "> 40", "unit": "%"}, {"measurement": "Recognized in % of recent-onset patients", "setting": "PBMCs", "value": "> 50", "unit": "%"}, {"measurement": "Responses (stimulation score), C", "setting": "PBMCs", "value": "0 (0–0)"}, {"measurement": "Responses (stimulation score), Control subjects", "setting": "PBMCs", "value": "0 (0–0)"}, {"measurement": "Responses (stimulation score), L", "setting": "PBMCs", "value": "12.8 (2.4–32.2)"}, {"measurement": "Responses (stimulation score), Patients", "setting": "PBMCs", "value": "12.2 (0–52.8)"}, {"measurement": "Responses (stimulation score), R", "setting": "PBMCs", "value": "8.7 (0–52.8)"}]}, {"substance": "ELRSRYWAI [NP 380–388, reference compound]", "values": [{"measurement": "Frequencies of recognition, Control subjects", "setting": "PBMCs", "value": "2/7"}, {"measurement": "Frequencies of recognition, Patients", "setting": "PBMCs", "value": "7/13"}, {"measurement": "Responses (stimulation score), Control subjects", "setting": "PBMCs", "value": "5 (2–131)"}, {"measurement": "Responses (stimulation score), Patients", "setting": "PBMCs", "value": "8 (0–119)"}]}, {"substance": "EWRFDSRLA [Nef 182–189, reference compound]", "values": [{"measurement": "Frequencies of recognition, Control subjects", "setting": "PBMCs", "value": "0/3"}, {"measurement": "Frequencies of recognition, Patients", "setting": "PBMCs", "value": "0/8"}, {"measurement": "Responses (stimulation score), Control subjects", "setting": "PBMCs", "value": "0 (0–0)"}, {"measurement": "Responses (stimulation score), Patients", "setting": "PBMCs", "value": "1 (0–35)"}]}, {"substance": "Peptide 1–8: human preproinsulin leader sequence peptide, residues 1–8, MALWMRLL", "values": [{"measurement": "Binding to HLA-A2 (in words)", "setting": "purified HLA-A2", "value": "no significant binding"}]}, {"substance": "RLLPLLALL [6–14]", "values": [{"measurement": "Binding to HLA-A2 (in words)", "setting": "purified HLA-A2", "value": "high binders"}, {"measurement": "Frequencies of recognition, C", "setting": "PBMCs", "value": "0/4"}, {"measurement": "Frequencies of recognition, Control subjects", "setting": "PBMCs", "value": "0/6"}, {"measurement": "Frequencies of recognition, D", "setting": "PBMCs", "value": "0/2"}, {"measurement": "Frequencies of recognition, L", "setting": "PBMCs", "value": "1/4"}, {"measurement": "Frequencies of recognition, Patients", "setting": "PBMCs", "value": "5/18"}, {"measurement": "Frequencies of recognition, R", "setting": "PBMCs", "value": "4/14"}, {"measurement": "Responses (stimulation score), C", "setting": "PBMCs", "value": "4.7 (3.9–7.2)"}, {"measurement": "Responses (stimulation score), Control subjects", "setting": "PBMCs", "value": "4.7 (3.9–7.2)"}, {"measurement": "Responses (stimulation score), L", "setting": "PBMCs", "value": "28.9 (21.1–51.1)"}, {"measurement": "Responses (stimulation score), Patients", "setting": "PBMCs", "value": "30.6 (7.8–144)"}, {"measurement": "Responses (stimulation score), R", "setting": "PBMCs", "value": "30.6 (7.8–144)"}]}, {"substance": "RLLPLLALLAL [6–16]", "values": [{"measurement": "Binding to HLA-A2 (in words)", "setting": "purified HLA-A2", "value": "high binders"}, {"measurement": "Frequencies of recognition, C", "setting": "PBMCs", "value": "0/8"}, {"measurement": "Frequencies of recognition, Control subjects", "setting": "PBMCs", "value": "0/12"}, {"measurement": "Frequencies of recognition, D", "setting": "PBMCs", "value": "0/4"}, {"measurement": "Frequencies of recognition, L", "setting": "PBMCs", "value": "2/4"}, {"measurement": "Frequencies of recognition, Patients", "setting": "PBMCs", "value": "9/20"}, {"measurement": "Frequencies of recognition, R", "setting": "PBMCs", "value": "7/16"}, {"measurement": "Recognized in % of patients", "setting": "PBMCs", "value": "> 40", "unit": "%"}, {"measurement": "Recognized in % of recent-onset patients", "setting": "PBMCs", "value": "at least 30%"}, {"measurement": "Responses (stimulation score), C", "setting": "PBMCs", "value": "0 (0–9.5)"}, {"measurement": "Responses (stimulation score), Control subjects", "setting": "PBMCs", "value": "0 (0–9.5)"}, {"measurement": "Responses (stimulation score), D", "setting": "PBMCs", "value": "0 (0–0)"}, {"measurement": "Responses (stimulation score), L", "setting": "PBMCs", "value": "12.2 (10–54.5)"}, {"measurement": "Responses (stimulation score), Patients", "setting": "PBMCs", "value": "7.3 (0–111.7)"}, {"measurement": "Responses (stimulation score), R", "setting": "PBMCs", "value": "5 (0–111.7)"}]}]}
